Data as given in US11147272B2, “Pyridone compounds and agricultural and horticultural fungicides comprising the same as active ingredients” (MITSUI CHEMICALS AGRO, INC., priority 2017, dated 2021).
Like-named read-outs stand apart in the source and are kept apart here.

Columns and labels:
Magnaporthe grisea = test: whole plant or invertebrate; format: in vivo; settings: for Test A control value class: class of control value
Alternaia brassicicola = test: Test Example C: Alternaria sooty spot on cabbage; format: in vivo
Source text: Seeds of a test plant (cabbage variety: Shikidori) were planted and cultivated until the cotyledons extended.
<Control Value> Control value=100{1−(n/3)}

Puccinia recondita = test: Test Example E: Brown rust on wheat; format: in vivo
Phytophthora infestans = test: whole plant or invertebrate; format: in vivo; settings: for Test F control value class: class of control value
Botrytis cinerea = test: Test Example B: Gray mold on tomato; settings: for Test B control value class: class of control value
Plasmopara viticola = test: Test Example G: Downy mildew on vine; settings: for Test G control value class: Downy mildew on vine (Neomuscat), 2.5 ml/pot, assessed 7 to 10 days after inoculation; for Test G control value: 7 to 10 days after inoculation; for pest or weed control at 250 ppm: Plasmopara viticola, topical
[1] = system: Colletotrichum orbiculare; test: Test Example H: Anthracnose on cucumber; settings: for Test H control value class: Anthracnose on cucumber (Sagami Hanjiro), 2.5 ml/pot, assessed 6 to 10 days after inoculation; for Test H control value: 6 to 10 days after inoculation; for pest or weed control at 250 ppm: Colletotrichum orbiculare, in Cucumis sativus, topical
[2] = system: Blumeria graminis f. sp. hordei; test: Test Example D: Powdery mildew on barley; settings: for Test D control value class: class of control value
[3] = Alternaria sooty spot on cabbage, class of control value
[4] = Brown rust on wheat, class of control value
[5] = 250 ppm drug solution sprayed on test plant
[6] = 250 ppm drug solution sprayed (2.5 ml/pot), grape Neomuscat
[7] = 250 ppm drug solution sprayed (2.5 ml/pot), cucumber Sagami Hanjiro

SMILES | Test A control value class (Magnaporthe grisea; Blast on rice) | Test C control value class (Alternaia brassicicola; [3]) | Test E control value class (Puccinia recondita; [4]) | Test F control value class (Phytophthora infestans; Late blight on tomato) | Test B control value class (Botrytis cinerea; Gray mold on tomato) | Test G control value class (Plasmopara viticola; 250 ppm spray) | Test H control value class ([1]; 250 ppm spray) | Test D control value class ([2]; Powdery mildew on barley) | Test A control value (Magnaporthe grisea; [5]) | Test C control value (Alternaia brassicicola; [5]) | Test E control value (Puccinia recondita; [5]) | Test F control value (Phytophthora infestans; [5]) | Test B control value (Botrytis cinerea; [5]) | Test G control value (Plasmopara viticola; [6]) | Test H control value [1, 7] | Test D control value [2, 5] | further results
Cn1c(-c2c(F)cc(F)cc2F)c(C(C)(C)C)cc(Br)c1=O [compound 78] | H (more than 50% control value) | H (more than 50% control value) | H (more than 50% control value) | L (50% or less control value) | H (more than 50% control value) | L (50% or less control value) | H (more than 50% control value) | H (more than 50% control value) |  |  |  |  |  |  |  |  | 
CCn1c(-c2c(F)cc(OC)cc2F)c(CN(OC)C(C)=O)cc(Cl)c1=O [compound 130] | H (more than 50% control value) | H (more than 50% control value) | H (more than 50% control value) | L (50% or less control value) | L (50% or less control value) | H (more than 50% control value) | H (more than 50% control value) | L (50% or less control value) |  |  |  |  |  |  |  |  | 
CCCC1=C(c2c(F)cccc2F)N(CC)C(=O)CC1 [compound 422] |  |  |  |  |  |  |  |  | L (50% or less control value) | H (more than 50% control value) | L (50% or less control value) | L (50% or less control value) | L (50% or less control value) | L (50% or less control value) | L (50% or less control value) | H (more than 50% control value) | 
CCn1c(-c2ccc(F)cc2)c(C(C)(OC)C(C)C)cc(Cl)c1=O (stereo not drawn) [compound 214] |  |  |  |  |  |  |  |  |  |  |  |  |  |  |  |  | Test A control value (Magnaporthe grisea; Blast on rice, control value class): H (more than 50% control value); Test C control value (Alternaia brassicicola; Alternaria sooty spot on cabbage, control value class): H (more than 50% control value); Test E control value (Puccinia recondita; Brown rust on wheat, control value class): H (more than 50% control value); Test F control value (Phytophthora infestans; Late blight on tomato, control value class): L (50% or less control value); Test B control value (Botrytis cinerea; Gray mold on tomato, control value class): H (more than 50% control value); Test G control value (Plasmopara viticola; Downy mildew on vine, 250 ppm spray): L (50% or less control value); Test H control value ([1]; Anthracnose on cucumber, 250 ppm spray): L (50% or less control value); Test D control value ([2]; Powdery mildew on barley, control value class): H (more than 50% control value)
CCC(O)c1ccc(=O)n(CC)c1-c1c(F)cc(F)cc1F (racemic) [compound 469] |  |  |  |  |  |  |  |  | L (50% or less control value) | H (more than 50% control value) | L (50% or less control value) | L (50% or less control value) | H (more than 50% control value) | L (50% or less control value) | H (more than 50% control value) | L (50% or less control value) | 
CCn1c(-c2c(F)cccc2F)c(C(O)C(C)C)cc(Br)c1=O (stereo not drawn) [compound 520] |  |  |  |  |  |  |  |  | H (more than 50% control value) | H (more than 50% control value) | H (more than 50% control value) | L (50% or less control value) | H (more than 50% control value) | H (more than 50% control value) | H (more than 50% control value) | H (more than 50% control value) | 
CCn1c(-c2c(F)cc(OC)cc2F)c(C(C)C(C)C)cc(Cl)c1=O (racemic) [compound 171] | H (more than 50% control value) | H (more than 50% control value) | H (more than 50% control value) | L (50% or less control value) | H (more than 50% control value) | H (more than 50% control value) | H (more than 50% control value) | H (more than 50% control value) |  |  |  |  |  |  |  |  | 
C=CCOc1cccc(F)c1-c1c(CC(C)C)cc(Cl)c(=O)n1CC [compound 104] | H (more than 50% control value) | L (50% or less control value) | L (50% or less control value) | L (50% or less control value) | H (more than 50% control value) | H (more than 50% control value) | H (more than 50% control value) | H (more than 50% control value) |  |  |  |  |  |  |  |  | 
CCn1c(-c2c(F)cc(F)cc2F)c(C(OC)C(F)(F)F)cc(Cl)c1=O (stereo not drawn) [Compound No. 516, 3-Chloro-1-ethyl-5-(2,2,2-trifluoro-1-methoxyethyl)-6-(2,4,6-trifluorophenyl)pyridin-2(1H)-one] |  |  |  |  |  |  |  |  |  |  |  |  |  |  |  |  | pest or weed control at 250 ppm (Magnaporthe grisea; Pyricularia oryzae, in Oryza sativa, read-out: Test A control value): > 50%; pest or weed control at 250 ppm (Alternaia brassicicola; topical, 250 ppm drug solution sprayed on test plant): > 50%; pest or weed control at 250 ppm (Puccinia recondita; Puccinia recondita, topical, 250 ppm drug solution sprayed on test plant): > 50%; pest or weed control at 250 ppm (Phytophthora infestans; Phytophthora infestans, in Solanum lycopersicum, topical, read-out: Test F control value): < 50%; pest or weed control at 250 ppm (Botrytis cinerea; Botrytis cinerea, in Solanum lycopersicum, topical, read-out: Test B control value): > 50%; pest or weed control at 250 ppm (Plasmopara viticola; 168 h, read-out: Test G control value): > 50%; pest or weed control at 250 ppm ([1]; 144 h, read-out: Test H control value): > 50%; pest or weed control at 250 ppm ([2]; Blumeria graminis, in Hordeum vulgare, topical, read-out: Test D control value): > 50%
COc1cc(F)c(-c2c(C(OC)C(C)C)cc(Cl)c(=O)n2C)c(F)c1 (stereo not drawn) [compound 498] |  |  |  |  |  |  |  |  | H (more than 50% control value) | H (more than 50% control value) | H (more than 50% control value) | L (50% or less control value) | H (more than 50% control value) | L (50% or less control value) | H (more than 50% control value) | L (50% or less control value) | 
CCC(=O)c1cc(Cl)c(=O)n(CC)c1-c1c(F)cccc1F [Compound No. 26, 3-chloro-6-(2,6-difluorophenyl)-1-ethyl-5-propionylpyridin-2(1H)-one] |  |  |  |  |  |  |  |  |  |  |  |  |  |  |  |  | pest or weed control at 250 µg/mL (Magnaporthe grisea; Pyricularia oryzae, in Oryza sativa, read-out: Test A control value class): > 50%; pest or weed control at 250 µg/mL (Alternaia brassicicola; Brassica oleracea, topical, Alternaria sooty spot on cabbage, class of control value, read-out: Test C control value class): > 50%; pest or weed control at 250 µg/mL (Puccinia recondita; Puccinia recondita, topical, Brown rust on wheat, class of control value, read-out: Test E control value class): > 50%; pest or weed control at 250 µg/mL (Phytophthora infestans; Phytophthora infestans, in Solanum lycopersicum, topical, read-out: Test F control value class): < 50%; pest or weed control at 250 µg/mL (Botrytis cinerea; Botrytis cinerea, in Solanum lycopersicum, topical, read-out: Test B control value class): > 50%; pest or weed control at 250 ppm (Plasmopara viticola; read-out: Test G control value class): > 50%; pest or weed control at 250 ppm ([1]; read-out: Test H control value class): > 50%; pest or weed control at 250 µg/mL ([2]; Blumeria graminis, in Hordeum vulgare, topical, read-out: Test D control value class): > 50%
CCn1c(-c2c(F)cc(F)cc2F)c(C(=O)C(C)(C)C)cc(Cl)c1=O [compound 173] | L (50% or less control value) | H (more than 50% control value) | H (more than 50% control value) | L (50% or less control value) | H (more than 50% control value) | L (50% or less control value) | H (more than 50% control value) | H (more than 50% control value) |  |  |  |  |  |  |  |  | 
